Source: ChEMBL document CHEMBL3877278, “Antiproliferative activity of amino substituted benzo[b]thieno[2,3-b]pyrido[1,2-a]benzimidazoles explored by 2D and 3D cell culture system” (Eur J Med Chem, 2017)

Tests used:
[1] = Antiproliferative activity against 2D culture of human MDA-MB-231 cells after 72 hrs MTS assay; assay type: functional, cell-based; conditions: MDA-MB-231, 72 h
[2] = Antiproliferative activity against 2D culture of human SK-BR-3 cells after 72 hrs MTS assay; assay type: functional, cell-based; conditions: SK-BR-3, 72 h
[3] = Antiproliferative activity against 2D culture of human T47D cells after 72 hrs MTS assay; assay type: functional, cell-based
[4] = Antiproliferative activity against 3D culture of human MDA-MB-231 cells after 72 hrs MTS assay; assay type: functional, cell-based; conditions: MDA-MB-231, 72 h
[5] = Antiproliferative activity against 3D culture of human SK-BR-3 cells after 72 hrs MTS assay; assay type: functional, cell-based; conditions: SK-BR-3, 72 h
[6] = Antiproliferative activity against 3D culture of human T47D cells after 72 hrs MTS assay; assay type: functional, cell-based
[7] = Lipophilicity, log D of the compound at pH 2.7 by HPLC method; assay type: physicochemical; conditions: buffer
[8] = Lipophilicity, log D of the compound at pH 7.4 by HPLC method; assay type: physicochemical; conditions: buffer

logD [7] | logD ([8]; read-out: logD) | logD [8] | Structure (SMILES) | IC50 [1] [µM] | IC50 [2] [µM] | IC50 [3] [µM] | IC50 [4] [µM] | IC50 [5] [µM] | IC50 [6] [µM]
5.14 | 5.11 |  | N#Cc1cc2ccc(F)cc2n2c1nc1ccccc12 | 30 | > 30 | > 30 | > 30 | > 30 | > 30
5.9 | 5.85 |  | N#Cc1c(Cl)c2ccccc2n2c1nc1ccccc12 | > 30 | > 30 | 1 | > 30 | > 30 | > 30
6.45 | 6.58 |  | CC(C)CNc1ccc2cc(C#N)c3nc4ccccc4n3c2c1 | 5 | 1 | 3 | > 30 | > 30 | 19
0.44 | 2.14 |  | CN(C)CCCNc1ccc2cc(C#N)c3nc4ccccc4n3c2c1 | 3 | 4 | 12 | 11 | > 30 | > 30
7 | 7.07 |  | N#Cc1cc2ccc(N3CCCCC3)cc2n2c1nc1ccccc12 | 7 | 3 | > 30 | > 30 | > 30 | > 30
0.27 | 2.01 |  | N#Cc1cc2ccc(N3CCNCC3)cc2n2c1nc1ccccc12 | 3 | 2 | 15 | 5 | > 30 | > 30
2.77 | 5.52 |  | CC(C)CNc1c(C#N)c2nc3ccccc3n2c2ccccc12 | > 30 | 4 | > 30 | > 30 | > 30 | > 30
-0.05 | 2.26 |  | CN(C)CCCNc1c(C#N)c2nc3ccccc3n2c2ccccc12 | 6 | 4 | 29 | 7 | > 30 | > 30
6.36 | 6.91 |  | N#Cc1c(N2CCCCC2)c2ccccc2n2c1nc1ccccc12 | > 30 | > 30 | > 30 | 3 | > 30 | > 30
0.53 | 2.22 |  | N#Cc1c(N2CCNCC2)c2ccccc2n2c1nc1ccccc12 | 8 | 9 | > 30 | 7 | > 30 | > 30
1.08 | 3.44 |  | N#Cc1c(N2CCNCC2)c2sc3ccccc3c2n2c1nc1ccccc12 | 5 | 4 | 5 | 5 | > 30 | > 30
 |  |  | N#Cc1c(N2CCCCC2)c2sc3cc(N4CCCCC4)ccc3c2n2c1nc1ccccc12 | > 30 | > 30 | > 30 | > 30 | > 30 | > 30
 |  |  | CC(C)CNc1ccc2c(c1)sc1c(NCC(C)C)c(C#N)c3nc4ccccc4n3c12 | > 30 | > 30 | 4 | > 30 | > 30 | 8
1.03 | 2.91 |  | CN(C)CCCNc1ccc2c(c1)sc1cc(C#N)c3nc4ccccc4n3c12 | 2 | 4 | 5 | 5 | 27 | > 30
-0.98 | 0.87 |  | N#Cc1c(N2CCNCC2)c2ccc(N3CCNCC3)cc2n2c1nc1ccccc12 | 2 | 7 | 5 | 9 | > 30 | > 30
3.76 | 2.95 |  | N#Cc1c(=O)c2sc3ccccc3c2n2c1[nH]c1ccccc12 | > 30 | > 30 | > 30 | > 30 | > 30 | > 30
8.52 | 8.5 |  | N#Cc1cc2sc3cc(N4CCCCC4)ccc3c2n2c1nc1ccccc12 | > 30 | > 30 | > 30 | > 30 | > 30 | > 30

logD [7] | logD ([8]; read-out: logD) | logD [8] | Structure (SMILES) | IC50 [1] [µM] | IC50 [2] [µM] | IC50 [3] [µM] | IC50 [4] [µM] | IC50 [5] [µM] | IC50 [6] [µM]
7.76 | 7.77 |  | CC(C)CNc1ccc2c(c1)sc1cc(C#N)c3nc4ccccc4n3c12 | 3 | 5 | 2 | > 30 | > 30 | 12
 |  |  | CC(C)CNc1ccc2c(NCC(C)C)c(C#N)c3nc4ccccc4n3c2c1 | > 30 | 5 | 12 | > 30 | > 30 | 19
3 | 2.46 |  | N#CC1C(=O)c2ccc(F)cc2-n2c1nc1ccccc12 (stereo not drawn) | > 30 | > 30 | > 30 | > 30 | > 30 | > 30
7.38 | 7.32 |  | N#Cc1c(Cl)c2sc3ccccc3c2n2c1nc1ccccc12 | > 30 | > 30 | 1 | > 30 | > 30 | > 30
0.84 | 2.75 |  | N#Cc1cc2sc3cc(N4CCNCC4)ccc3c2n2c1nc1ccccc12 | 4 | 2 | 5 | 19 | 24 | 26
4.04 | 3.2 |  | N#Cc1c(=O)c2sc3cc(F)ccc3c2n2c1[nH]c1ccccc12 | > 30 | > 30 | > 30 | > 30 | > 30 | > 30
0.69 | 3.44 |  | CN(C)CCCNc1c(C#N)c2nc3ccccc3n2c2c1sc1ccccc12 | 3 | 1 | 4 | 4 | 10 | 23
7.51 |  | 9.11 | N#Cc1c(N2CCCCC2)c2ccc(N3CCCCC3)cc2n2c1nc1ccccc12 | > 30 | > 30 | > 30 | > 30 | > 30 | > 30
4.04 | 3.2 |  | N#Cc1c(Cl)c2sc3cc(F)ccc3c2n2c1nc1ccccc12 | > 30 | > 30 | > 30 | > 30 | > 30 | > 30
2.6 | 2.09 |  | N#CC1C(=O)c2ccccc2-n2c1nc1ccccc12 (stereo not drawn) | > 30 | > 30 | > 30 | > 30 | > 30 | > 30
7.7 | 8.34 |  | N#Cc1c(N2CCCCC2)c2sc3ccccc3c2n2c1nc1ccccc12 | 6 | > 30 | 5 | > 30 | > 30 | > 30
-0.51 | 1.89 |  | N#Cc1c(N2CCNCC2)c2sc3cc(N4CCNCC4)ccc3c2n2c1nc1ccccc12 | 4 | 8 | 12 | 17 | > 30 | > 30
6.11 | 6.05 |  | N#Cc1c(Cl)c2ccc(F)cc2n2c1nc1ccccc12 | 11 | 5 | 2 | > 30 | > 30 | > 30
6.32 | 6.3 |  | N#Cc1cc2sc3cc(F)ccc3c2n2c1nc1ccccc12 | > 30 | > 30 | 1 | > 30 | > 30 | > 30
4.67 | 6.99 |  | CC(C)CNc1c(C#N)c2nc3ccccc3n2c2c1sc1ccccc12 | 9 | > 30 | 5 | > 30 | > 30 | > 30
 |  |  | COc1cccc2c1C(=O)c1c(O)c3c(c(O)c1C2=O)C[C@@](O)(C(=O)CO)C[C@@H]3O[C@H]1C[C@H](N)[C@H](O)[C@H](C)O1 [DOXORUBICIN] |  |  | 0.08 |  | 1.29 | 1.01
